T/C data for 20 compounds are collected here from PubChem BioAssay AID248 (DTP/NCI, 2004).

Values joined by “and” are separate entries in the source; they are usually repeats but may differ in a detail not shown here. Equal entries are not always repeated. Toxic doses and inconclusive results are not listed.

The test system of the assay is L1210 leukemia ip in BDF1 mice, survival T/C. Put plainly: NCI In Vivo Anticancer Drug Screen. Data for tumor model L1210 Leukemia (intraperitoneal) in B6D2F1 (BDF1) mice. The note with it: endpoint: mean survival time, higher = longer survival. The method in brief: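 Each compound was tested against a transplantable tumor grown in mice. The endpoint was survival, with treated animals benchmarked against vehicle controls as a simple ratio.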

Setting [1] is: dose: 25.0 mg/kg/injection, schedule: Q04DX003 (ip), vehicle: saline.
[2] abbreviates: dose: 50.0 mg/kg/injection, schedule: Q04DX003 (ip), vehicle: saline.
Setting [3] is: dose: 100.0 mg/kg/injection, schedule: Q01DX001 (ip), vehicle: saline.
[4] abbreviates: dose: 100.0 mg/kg/injection, schedule: Q04DX003 (ip), vehicle: saline with Tween-80.
The mark [5] stands for this setting: dose: 100.0 mg/kg/injection, schedule: Q04DX003 (ip), vehicle: saline.
Where [6] appears, read: dose: 200.0 mg/kg/injection, schedule: Q04DX003 (ip), vehicle: saline with Tween-80.
Where [7] appears, read: dose: 400.0 mg/kg/injection, schedule: Q04DX003 (ip), vehicle: saline with Tween-80.
Where [8] appears, read: dose: 100.0 mg/kg/injection, schedule: Q04DX003 (ip), vehicle: Klucel (hydroxypropylcellulose) (HPC).
Where [9] appears, read: dose: 200.0 mg/kg/injection, schedule: Q04DX003 (ip), vehicle: Klucel (hydroxypropylcellulose) (HPC).
[10] abbreviates: dose: 400.0 mg/kg/injection, schedule: Q04DX003 (ip), vehicle: Klucel (hydroxypropylcellulose) (HPC).
[11] abbreviates: dose: 75.0 mg/kg/injection, schedule: Q01DX001 (ip), vehicle: saline.
[12] abbreviates: dose: 150.0 mg/kg/injection, schedule: Q01DX001 (ip), vehicle: saline.
[13] abbreviates: dose: 100.0 mg/kg/injection, schedule: Q04DX002 (ip), vehicle: Klucel (hydroxypropylcellulose) (HPC).
[14] abbreviates: dose: 200.0 mg/kg/injection, schedule: Q04DX002 (ip), vehicle: Klucel (hydroxypropylcellulose) (HPC).
Setting [15] is: dose: 400.0 mg/kg/injection, schedule: Q04DX002 (ip), vehicle: Klucel (hydroxypropylcellulose) (HPC).
Where [16] appears, read: dose: 300.0 mg/kg/injection, schedule: Q01DX001 (ip), vehicle: saline.
Setting [17] is: dose: 100.0 mg/kg/injection, schedule: Q01DX009 (ip), vehicle: Klucel (hydroxypropylcellulose) (HPC).
Where [18] appears, read: dose: 200.0 mg/kg/injection, schedule: Q01DX009 (ip), vehicle: Klucel (hydroxypropylcellulose) (HPC).
Setting [19] is: dose: 400.0 mg/kg/injection, schedule: Q01DX009 (ip), vehicle: Klucel (hydroxypropylcellulose) (HPC).

Consider `FC(F)(F)C(Cl)Br` (centres undefined), for which the T/C reads like this: under setting [1], 106 % of control; under setting [2], 104 % of control; under setting [3], 101 % of control; under setting [4], 98 % of control; under setting [5], 97 % of control; (dose: 150.0 mg/kg/injection, schedule: Q04DX003 (ip), vehicle: saline) 98 % of control. The T/C is 97 % of control under setting [6]; 101 % of control (dose: 225.0 mg/kg/injection, schedule: Q04DX003 (ip), vehicle: saline); 96 % of control (dose: 335.0 mg/kg/injection, schedule: Q04DX003 (ip), vehicle: saline); 106 % of control under setting [7]; 97 % of control (dose: 1000.0 mg/kg/injection, schedule: Q05DX002 (ip), vehicle: water); 108 % of control (dose: 2000.0 mg/kg/injection, schedule: Q05DX002 (ip), vehicle: water).
As for `CCCCCN(CCCCC)CCCNc1c2c(nc3ccc(Cl)cc13)CCCC2`, the T/C (dose: 50.0 mg/kg/injection, schedule: Q01DX001 (ip), vehicle: saline) was 96 % of control.
Consider `CN1CCC(=C2c3ccccc3C(O)c3ccccc32)CC1` (centres undefined), for which the T/C reads like this: (dose: 3.12 mg/kg/injection, schedule: Q01DX009 (ip), vehicle: Klucel (hydroxypropylcellulose) (HPC)) 98 % of control; (dose: 6.25 mg/kg/injection, schedule: Q01DX009 (ip), vehicle: Klucel (hydroxypropylcellulose) (HPC)) 96 % of control; (dose: 12.5 mg/kg/injection, schedule: Q01DX009 (ip), vehicle: Klucel (hydroxypropylcellulose) (HPC)) 93 % of control; (dose: 25.0 mg/kg/injection, schedule: Q04DX003 (ip), vehicle: Klucel (hydroxypropylcellulose) (HPC)) 98 % of control; (dose: 50.0 mg/kg/injection, schedule: Q01DX009 (ip), vehicle: Klucel (hydroxypropylcellulose) (HPC)) 93 % of control; (dose: 50.0 mg/kg/injection, schedule: Q04DX003 (ip), vehicle: Klucel (hydroxypropylcellulose) (HPC)) 98 % of control.
With `COc1ccc(C(=O)NCCc2ccccc2)cc1`, the T/C is 96 % of control under setting [8], 105 % of control under setting [9] and 104 % of control under setting [10].
As to `CCCCCCCCCCCCSC(=N)N`, the T/C (dose: 12.5 mg/kg/injection, schedule: Q01DX009 (ip), vehicle: acetone) is 103 % of control; the T/C (dose: 12.5 mg/kg/injection, schedule: Q04DX003 (ip), vehicle: saline with Tween-80) was 98 % of control; the T/C (dose: 25.0 mg/kg/injection, schedule: Q01DX009 (ip), vehicle: acetone) is 95 % of control; the T/C (dose: 25.0 mg/kg/injection, schedule: Q04DX003 (ip), vehicle: saline with Tween-80) was 100 % of control; the T/C under setting [1] is 104 % of control; the T/C (dose: 35.0 mg/kg/injection, schedule: Q04DX003 (ip), vehicle: saline) was 89 % of control. Also, the T/C is 95 % of control (dose: 50.0 mg/kg/injection, schedule: Q04DX003 (ip), vehicle: saline with Tween-80); 91 % of control under setting [2]; 89 % of control (dose: 75.0 mg/kg/injection, schedule: Q04DX003 (ip), vehicle: saline); 94 % of control and 95 % of control under setting [5]; 97 % of control (dose: 115.0 mg/kg/injection, schedule: Q04DX003 (ip), vehicle: saline).
`CC(=N\N=C(N)N)/C(C)=N/N=C(N)N`: the T/C under setting [11] was 101 % of control and the T/C under setting [12] was 98 % of control.
Take `[O-][N+](=Nc1ccc(Br)cc1)c1ccc(Br)cc1`: the T/C is 95 % of control under setting [13], 100 % of control under setting [14] and 89 % of control under setting [15].
For `c1cc2c(cc1NC1=NCCO1)CCC2`, the T/C (dose: 6.25 mg/kg/injection, schedule: Q01DX009 (ip), vehicle: saline with Tween-80) is 107 % of control; the T/C (dose: 12.5 mg/kg/injection, schedule: Q01DX009 (ip), vehicle: saline with Tween-80) was 95 % of control; the T/C (dose: 25.0 mg/kg/injection, schedule: Q01DX009 (ip), vehicle: saline with Tween-80) is 114 % of control.
Consider `CC(C)CSC(SCC(C)C)C(OC(=O)c1ccccc1)C(OC(=O)c1ccccc1)C(COC(=O)c1ccccc1)OC(=O)c1ccccc1` (centres undefined), for which the T/C is 103 % of control under setting [13], 94 % of control under setting [14] and 87 % of control under setting [15].
Consider `CCCCCCC(=O)OCc1ccc(-c2ccccc2)cc1`, for which the T/C under setting [11] is 90 % of control, the T/C under setting [12] was 87 % of control and the T/C under setting [16] was 92 % of control.
`CCN(CC)CCNC(c1ccc(OC)cc1)C(Cl)(Cl)Cl` (centres undefined): the T/C is, setting by setting: under setting [11], 97 % of control; under setting [12], 91 % of control.
With `CCOC(=O)Cc1cc(=O)[nH]n(-c2ccccc2)c1=O`, the T/C is 100 % of control (dose: 100.0 mg/kg/injection, schedule: Q04DX002 (ip), vehicle: gum acacia); 89 % of control (dose: 200.0 mg/kg/injection, schedule: Q04DX002 (ip), vehicle: gum acacia); 96 % of control (dose: 400.0 mg/kg/injection, schedule: Q04DX002 (ip), vehicle: gum acacia).
As to `COc1ccc(C(C(N)=O)N2CCCCC2)cc1` (centres undefined), the T/C was 95 % of control under setting [17]; 107 % of control under setting [8]; 88 % of control under setting [18]; 94 % of control under setting [9]; 91 % of control under setting [19]; 102 % of control under setting [10].
Take `CCN(CC)CCSc1ncnc2nc[nH]c12`: the T/C was 102 % of control under setting [11], 91 % of control under setting [12] and 104 % of control under setting [16].
As for `CC(=O)Oc1ccc(CCN(C)C2CC3CCC2(C)C3(C)C)cc1OC(C)=O` (centres undefined), the T/C was 110 % of control under setting [3]; 93 % of control (dose: 200.0 mg/kg/injection, schedule: Q01DX001 (ip), vehicle: saline); 100 % of control (dose: 400.0 mg/kg/injection, schedule: Q01DX001 (ip), vehicle: saline).
With `NNC(=O)c1n[nH]c(=S)[nH]c1=O`, the T/C runs as follows: (dose: 100.0 mg/kg/injection, schedule: Q01DX001 (ip), vehicle: carboxymethylcellulose (CMC)) 98 % of control; (dose: 200.0 mg/kg/injection, schedule: Q01DX001 (ip), vehicle: carboxymethylcellulose (CMC)) 103 % of control; (dose: 400.0 mg/kg/injection, schedule: Q01DX001 (ip), vehicle: carboxymethylcellulose (CMC)) 95 % of control.
For `CC(C)(C)OC(=O)COc1cccc([N+](=O)[O-])c1`, the T/C runs as follows: under setting [17], 114 % of control; under setting [18], 102 % of control; under setting [19], 100 % of control.
As for `Cc1ccc(OCCBr)cc1`, the T/C under setting [17] was 93 % of control; the T/C under setting [4] was 100 % of control; the T/C under setting [18] is 101 % of control; the T/C under setting [6] was 107 % of control; the T/C under setting [7] was 98 % of control.
Turning to `Cc1cc(NS(=O)(=O)c2ccc(N)cc2)sn1`, the T/C is, setting by setting: under setting [5], 87 % of control; (dose: 200.0 mg/kg/injection, schedule: Q04DX003 (ip), vehicle: saline) 92 % of control; (dose: 400.0 mg/kg/injection, schedule: Q04DX003 (ip), vehicle: saline) 97 % of control.
For `CO[C@@H](C=O)O[C@@H](C=O)CO`, the T/C runs as follows: (dose: 35.0 mg/kg/injection, schedule: Q01DX009 (ip), vehicle: water) 115 % of control; (dose: 35.0 mg/kg/injection, schedule: Q01DX Z (ip), vehicle: water) 115 % of control; (dose: 70.0 mg/kg/injection, schedule: Q01DX009 (ip), vehicle: water) 123 % of control; (dose: 70.0 mg/kg/injection, schedule: Q01DX Z (ip), vehicle: water) 122 % of control; (dose: 280.0 mg/kg/injection, schedule: Q01DX009 (ip), vehicle: water) 153 % of control; (dose: 280.0 mg/kg/injection, schedule: Q01DX Z (ip), vehicle: water) 160 % of control.
